PubChem BioAssay AID330 (DTP/NCI, 2004)
Several values for one entry are separate records, joined by “and”; a condition that tells them apart may be missing. Identical values can stand only once. Inconclusive results and toxic doses are left out. Rule for the calls: active = survival T/C of 150% or more; inactive = T/C below 125% in these data.

Tested on: P388 leukemia ip, CD2F1 mice, survival T/C
Assay: NCI In Vivo Anticancer Drug Screen. Data for tumor model P388 Leukemia (intraperitoneal) in CD2F1 (CDF1) mice
Settings: endpoint: median survival time, higher = longer survival
Outline: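 Mice carrying the transplanted tumor received test compound or vehicle. Survival was recorded in each group, and the value is the treated-group measurement divided by that of the vehicle-treated control group.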

[1] = dose: 60.0 mg/kg/injection, schedule: Q01DX005 (ip), vehicle: saline
[2] = dose: 120.0 mg/kg/injection, schedule: Q01DX005 (ip), vehicle: saline
[3] = dose: 240.0 mg/kg/injection, schedule: Q01DX005 (ip), vehicle: saline
[4] = dose: 1.0 % in 0.5 ml injection vol, schedule: Q01DX009 (ip), vehicle: water
[5] = dose: 2.0 % in 0.5 ml injection vol, schedule: Q01DX009 (ip), vehicle: water
[6] = dose: 4.0 % in 0.5 ml injection vol, schedule: Q01DX009 (ip), vehicle: water
[7] = dose: 8.0 % in 0.5 ml injection vol, schedule: Q01DX009 (ip), vehicle: water
[8] = dose: 16.0 % in 0.5 ml injection vol, schedule: Q01DX009 (ip), vehicle: water
[9] = dose: 60.0 mg/kg/injection, schedule: Q01DX005 (ip), vehicle: saline with Tween-80
[10] = dose: 120.0 mg/kg/injection, schedule: Q01DX005 (ip), vehicle: saline with Tween-80
[11] = dose: 240.0 mg/kg/injection, schedule: Q01DX005 (ip), vehicle: saline with Tween-80
[12] = dose: 50.0 mg/kg/injection, schedule: Q01DX005 (ip), vehicle: saline
[13] = dose: 100.0 mg/kg/injection, schedule: Q01DX005 (ip), vehicle: saline
[14] = dose: 200.0 mg/kg/injection, schedule: Q01DX005 (ip), vehicle: saline
[15] = dose: 50.0 mg/kg/injection, schedule: Q01DX005 (ip), vehicle: saline with Tween-80
[16] = dose: 100.0 mg/kg/injection, schedule: Q01DX005 (ip), vehicle: saline with Tween-80
[17] = dose: 200.0 mg/kg/injection, schedule: Q01DX005 (ip), vehicle: saline with Tween-80
[18] = dose: 60.0 mg/kg/injection, schedule: Q01DX005 (ip), vehicle: Klucel (hydroxypropylcellulose) (HPC)
[19] = dose: 120.0 mg/kg/injection, schedule: Q01DX005 (ip), vehicle: Klucel (hydroxypropylcellulose) (HPC)
[20] = dose: 240.0 mg/kg/injection, schedule: Q01DX005 (ip), vehicle: Klucel (hydroxypropylcellulose) (HPC)
[21] = dose: 50.0 mg/kg/injection, schedule: Q01DX009 (ip), vehicle: Klucel (hydroxypropylcellulose) (HPC)
[22] = dose: 100.0 mg/kg/injection, schedule: Q01DX009 (ip), vehicle: Klucel (hydroxypropylcellulose) (HPC)
[23] = dose: 200.0 mg/kg/injection, schedule: Q01DX009 (ip), vehicle: Klucel (hydroxypropylcellulose) (HPC)
[24] = dose: 100.0 mg/kg/injection, schedule: Q04DX003 (ip), vehicle: Klucel (hydroxypropylcellulose) (HPC)
[25] = dose: 200.0 mg/kg/injection, schedule: Q04DX003 (ip), vehicle: Klucel (hydroxypropylcellulose) (HPC)
[26] = dose: 12.5 mg/kg/injection, schedule: Q01DX005 (ip), vehicle: Klucel (hydroxypropylcellulose) (HPC)
[27] = dose: 25.0 mg/kg/injection, schedule: Q01DX005 (ip), vehicle: Klucel (hydroxypropylcellulose) (HPC)
[28] = dose: 50.0 mg/kg/injection, schedule: Q01DX005 (ip), vehicle: Klucel (hydroxypropylcellulose) (HPC)
[29] = dose: 100.0 mg/kg/injection, schedule: Q01DX005 (ip), vehicle: Klucel (hydroxypropylcellulose) (HPC)
[30] = dose: 200.0 mg/kg/injection, schedule: Q01DX005 (ip), vehicle: Klucel (hydroxypropylcellulose) (HPC)

Measured: T/C

O=CC(O)C(O)C(O)C(O)CO (stereo not given)
inactive: dose: 12.5 mg/kg/injection, schedule: Q04DX003 (ip), vehicle: saline 108 % of control | dose: 25.0 mg/kg/injection, schedule: Q04DX003 (ip), vehicle: saline 100 % of control | dose: 50.0 mg/kg/injection, schedule: Q04DX003 (ip), vehicle: saline 108 % of control | [1] 103 % of control | [2] 105 % of control | [3] 102 % of control | [4] 100 % of control | [5] 103 % of control | [6] 101 % of control | [7] 100 % of control and 105 % of control | [8] 103 % of control and 112 % of control | dose: 32.0 % in 0.5 ml injection vol, schedule: Q01DX009 (ip), vehicle: water 98 % of control and 99 % of control

N=C1N=Nc2nc(C(C(=O)c3ccc(O)cc3O)c3nc4n(c3O)C(=N)N=N4)c(O)n21 (stereo not given)
inactive: [9] 100 % of control | [10] 104 % of control | [11] 103 % of control

CCC(CC)CS(=O)(=O)OCCCCOS(=O)(=O)CC(CC)CC
inactive: [12] 99 % of control | [13] 107 % of control | [14] 111 % of control

O=C(N/N=C/c1ccccc1O)N/N=C/c1ccccc1O
inactive: dose: 50.0 mg/kg/injection, schedule: Q01DX009 (ip), vehicle: saline with Tween-80 96 % of control | dose: 100.0 mg/kg/injection, schedule: Q01DX009 (ip), vehicle: saline with Tween-80 96 % of control | dose: 200.0 mg/kg/injection, schedule: Q01DX009 (ip), vehicle: saline with Tween-80 96 % of control | dose: 400.0 mg/kg/injection, schedule: Q01DX009 (ip), vehicle: saline with Tween-80 87 % of control

C1=C(c2ccccc2)C(c2ccc(OCCN3CCCCC3)cc2)Oc2ccccc21 (stereo not given)
inactive: [15] 92 % of control | [16] 86 % of control

COC1OC(COC(C)=O)C(N(C)C(C)=O)C1OC(C)=O (stereo not given)
inactive: [1] 103 % of control | [2] 96 % of control | [3] 104 % of control

O=S(=O)(OCC(O)C1OCC(O)C1O)c1ccccc1 (stereo not given)
inactive: dose: 50.0 mg/kg/injection, schedule: Q01DX009 (ip), vehicle: saline 98 % of control | dose: 100.0 mg/kg/injection, schedule: Q01DX009 (ip), vehicle: saline 100 % of control | dose: 200.0 mg/kg/injection, schedule: Q01DX009 (ip), vehicle: saline 105 % of control

CSC1=NC=C(C#N)C2=NC(c3c(F)cccc3Cl)NN12 (stereo not given)
inactive: [9] 89 % of control | [10] 89 % of control | [11] 90 % of control

CN(CCN1C(=O)c2cccc3cccc(c23)C1=O)CCN1C(=O)c2cccc3cccc(c23)C1=O
inactive: [15] 95 % of control | [9] 95 % of control | [16] 87 % of control | [17] 91 % of control | [11] 88 % of control

O=C1C2CCCN2C(=O)N1c1ccccc1 (stereo not given)
inactive: [18] 105 % of control | [19] 97 % of control | [20] 96 % of control

O=C(O)CCCNC(=O)Cc1ccccc1
inactive: [12] 93 % of control | [13] 90 % of control

CC1=C(Br)S(=O)(=O)N(c2ccccc2)C(CBr)=C1Br
inactive: [9] 100 % of control | [10] 91 % of control | [11] 93 % of control

NN1C(=O)/C(=C\c2ccccc2)SC1=S
inactive: dose: 100.0 mg/kg/injection, schedule: Q04DX002 (ip), vehicle: Klucel (hydroxypropylcellulose) (HPC) 107 % of control | dose: 200.0 mg/kg/injection, schedule: Q04DX002 (ip), vehicle: Klucel (hydroxypropylcellulose) (HPC) 111 % of control | dose: 400.0 mg/kg/injection, schedule: Q04DX002 (ip), vehicle: Klucel (hydroxypropylcellulose) (HPC) 98 % of control

O=[N+]([O-])c1ccc(S(=O)(=O)C/C=C/CCl)c([N+](=O)[O-])c1
inactive: dose: 12.5 mg/kg/injection, schedule: Q01DX009 (ip), vehicle: saline with Tween-80 113 % of control | dose: 25.0 mg/kg/injection, schedule: Q01DX009 (ip), vehicle: saline with Tween-80 90 % of control

Cc1ccc(S(=O)(=O)N/N=C/c2c(C)noc2C)cc1
inactive: [21] 101 % of control | [22] 95 % of control | [23] 95 % of control

CN(C)c1ccc(C(=O)C(=O)c2ccccc2)cc1
inactive: [24] 106 % of control | [25] 99 % of control | dose: 400.0 mg/kg/injection, schedule: Q04DX003 (ip), vehicle: Klucel (hydroxypropylcellulose) (HPC) 100 % of control

CC(C)COC(=O)C(CC(C)C)NC(=O)C(C)O (stereo not given)
inactive: dose: 50.0 mg/kg/injection, schedule: Q01DX001 (ip), vehicle: suspension in saline 103 % of control | [9] 97 % of control | dose: 100.0 mg/kg/injection, schedule: Q01DX001 (ip), vehicle: suspension in saline 92 % of control | [10] 101 % of control | dose: 200.0 mg/kg/injection, schedule: Q01DX001 (ip), vehicle: suspension in saline 103 % of control | [11] 100 % of control | dose: 400.0 mg/kg/injection, schedule: Q01DX001 (ip), vehicle: suspension in saline 104 % of control

CCOC(=O)C1=C(C(=O)c2cccc3ccccc23)C(c2ccc([N+](=O)[O-])cc2)C(C(=O)c2cccc3ccccc23)=C(C(=O)OCC)N1
inactive: [18] 87 % of control and 88 % of control | [19] 87 % of control | [20] 86 % of control and 95 % of control

CC1CCCC(C2CCCCCCC2O)N1 (stereo not given)
inactive: [12] 100 % of control | [13] 92 % of control | [14] 97 % of control

CC(C)CN1CC(=O)N2CCCC(c3ccccc3)N2C(=O)C1 (stereo not given)
inactive: [15] 95 % of control | [16] 115 % of control | [17] 112 % of control

CCn1c2ccccc2c2cc(N)c(N=Nc3cc(OC)c(N=Nc4ccc([N+](=O)[O-])cc4)cc3OC)cc21
inactive: [21] 104 % of control | [22] 105 % of control | [23] 112 % of control

CC(CO)(CO)N1C(=O)c2cccc3cc([N+](=O)[O-])cc(c23)C1=O
inactive: [15] 114 % of control | [16] 105 % of control | [17] 107 % of control

CO
inactive: dose: 0.5 % in 0.5 ml injection vol, schedule: Q01DX009 (ip), vehicle: water 105 % of control | [4] 102 % of control | [5] 104 % of control | [6] 104 % of control | [7] 100 % of control and 107 % of control | [8] 94 % of control

CCCNc1ccnc(F)n1
inactive: [26] 100 % of control | [27] 102 % of control | [28] 106 % of control | [29] 105 % of control

c1ccc(CNCc2ccccc2)cc1
inactive: dose: 50.0 mg/kg/injection, schedule: Q04DX003 (ip), vehicle: Klucel (hydroxypropylcellulose) (HPC) 95 % of control | [24] 95 % of control | [25] 100 % of control

CCCCOC(=O)NP1(=O)NCc2ccccc2CN1
inactive: [26] 93 % of control | [27] 87 % of control | [28] 91 % of control and 93 % of control | [30] 91 % of control

C[n+]1ccc(-c2nc(-c3cc[n+](C)cc3)nc(-c3cc[n+](C)cc3)n2)cc1
inactive: dose: 25.0 mg/kg/injection, schedule: Q01DX001 (ip), vehicle: saline with Tween-80 102 % of control | dose: 50.0 mg/kg/injection, schedule: Q01DX001 (ip), vehicle: saline with Tween-80 99 % of control | dose: 100.0 mg/kg/injection, schedule: Q01DX001 (ip), vehicle: saline with Tween-80 108 % of control

CC(=O)N1C=CN(C(C)=O)C1c1c[nH]c2ccccc12
inactive: [28] 98 % of control | [29] 104 % of control | [30] 99 % of control

Cc1ncc([N+](=O)[O-])n1Cc1nncs1
inactive: [21] 108 % of control | [22] 107 % of control | [23] 104 % of control
